The values below come from patent US20240269308A1, “PRODRUGS OF TOPOISOMERASE I INHIBITOR FOR ADC CONJUGATIONS AND METHODS OF USE THEREOF” (priority 2022, published 2024).

As a reminder, the IC50 is the concentration that gives 50% inhibition. As usually defined, the EC50 is the concentration giving half of the maximal effect. What is called pEC50 is −log10 of the EC50, conventionally taken in molar units.

Data set [1] in a line: Mouse whole blood stability test. The format is in vitro ADME. To be noted: for % of test compound in whole blood (initial 1 uM as 100%): 37° C. The procedure:
In vitro stability of Linker-Prodrug in mouse whole blood Scheme 15. Metabolism of LP1 (M2980) in whole blood.
Stock solution of test compound was provided in 100% DMSO. The stock solution for each compound was diluted into 500 μM with mixture of 50% acetonitrile, then diluted into mouse blood to achieve a final concentration of 1.0 μM. 1.0 μM of test compound in duplicate was incubated in blood at 37° C. Aliquots of 50 uL sample was collected at 0, 15, 30, 60, 120, 240, 480 min, and 24 hours. Reactions were terminated at various time points (0, 15, 30, 60, 120, 240, 480 min, 24 hours) by adding 200 μL of ice-cold acetonitrile containing internal standard with 1% formic acid and then ultrasound for 30 seconds. Plate was centrifuged (4000 rpm, 15 min). 50 μL of supernatants were transferred into a daughter plate containing 200 μL of H2O in each well. The samples were mixed well and analyzed with UPLC-MS/MS.
A Waters liquid chromatographic system was used. Detection was performed on AP14000 Q-Trap and AP15500 mass spectrometer equipped with TurbolonSpray (ESI) Interface (Applied Biosystems, Concord, Ontario, Canada). Analyst 1.5 and 1.6.2 software packages (Applied Biosystems) were used to control the LC-MS/MS system, as well as for data acquisition and processing.
Chromatographic separation was achieved on the Wates BEH C18 column (50*2.1 mm ID, 1.7 μm). The column temperature was maintained at ambient temperature (25° C.). The flow rate was maintained at 0.6 mL/min and the following mobile phases were used: water (0.1% formic acid, v/v) (phase A) and acetonitrile (0.1% formic acid, v/v) (phase B).
Test compounds (1.0 μM) were incubated in blood at 37° C. in duplicate. Aliquots of 50 uL sample was collected at 0, 15, 30, 60, 120, 240, 480 min, and 24 hours. Reactions were terminated at various time points (0, 15, 30, 60, 120, 240, 480 min, 24 hours by adding 200 μL of ice-cold acetonitrile containing internal standard with 1% formic acid, then ultrasound for 30 seconds. The plate was centrifuged (4000 rpm, 15 min). 50 μL of supernatants were transferred into a daughter plate containing 200 μL of water in each well. Samples were mixed well and analyzed with UPLC-MS/MS.
The % was calculated based on initial 1 uM as 100% and the standard concentration curve.

A further data set relates to JIMT-1. Put plainly: in vitro cell killing activity, JIMT-1 cells (CellTiter Glo viability). The format is cell-based. As for the experimental part:
(§1) Serial dilutions of free drug in 100% DMSO (1:4 10 pts starting from 100 uM) were prepared. Serially diluted payload was transferred into Opti-Mem with 0.1% BSA (10 uL into 990 uL media). Serial dilutions of ADCs/isotype controls at 1:4 in Opti-Mem with 0.1% BSA (starting from 5×1000 nM) were prepared. 20ul assay media diluted ADC/isotype conjugates as well as free drug were transferred to above cells. The plates were incubated at 37° C., 5% CO2 for 6 days. Plates were developed by adding 100ul CellTiter Glo 2.0. RT 5-10 min. Plates were read with Envision plate reader. Data was analyzed using Prism. Only inner 60 well are used for the assay. The edge wells were filled with media to prevent dry out.
For orientation: ATP-based viability assays read luminescence as a measure of living cells.

In a further data set the test system is NCI-H1975 cells. Description: anti-Her2 viability assay, NCI-H1975 cells (target negative). The format is cell-based. As for the experimental part:
(§2) The anti-Her2 viability assay protocol is following.
(§3) 0.1% BSA was added to the Opti-MEM reduced serum media [Gibco, cat #31985-070]. This assay media was used for the dilution of ADC and free drug.
(§4) Cells were seeded in their growth media into 96 well plates (Thermo #136101) one day prior to adding ADCs: 1000/well SKBR3 cells in 80 uL media (target positive cells), 1000/well NCI-N87 cells in 80 uL media (target positive cells), 1000/well Calu-3 in 80 uL media (target positive cells), and 800/well NCI-H1975 cells in 80ul media (target negative cells).
as §1

The next data set deals with Calu-3. Put plainly: anti-Her2 viability assay, Calu-3 cells (target positive). Format: cell-based. The procedure: as §2, §3, §4, §1
The subject of another data set is SK-BR-3 cells. Put plainly: SKBR3 cell-based anti-proliferation / viability assay (CellTiter-Glo). As to conditions: for pEC50: SK-BR-3, read-out: SKBR3 EC50. Set-up: species or system human. The procedure:
as §2, §3, §4, §1
The cell line used in the anti-proliferation assays was SK-BR-3, a human breast, adenocarcinoma (pleural effusion) cell line; The cells were grown in McCoy's 5a Medium+10% FBS. To run the assay, the cells (80 μl, 1000 cells) were added to each well in a 96-well plate and incubated for 24 hours at 37° C. with CO2. Next, the cells were treated with test compounds (20 μl) at various concentrations in appropriate cell culture medium (total volume, 0.1 mL). The control wells contain cells and the medium but lack the test compounds. The plates were incubated for 144 hours at 37° C. with CO2. CTG reagent was then added to the wells (100 μl). After the plates were shaken for 10 min and then incubated for 10 min at room temperature, paste the clear bottom with white back seal and record luminescence with Envision. The inhibition % was calculated according to the following equation: inhibition %=[1-(assay-blank)/(control-blank)]×100.

Another data set has as its system NCI-N87 cells. Put plainly: anti-Her2 viability assay, NCI-N87 cells (target positive). Format: cell-based. To be noted: Homo sapiens, NCI-N87, 144 h, read-out: N87 IC50 (nM). The procedure:
as §2, §3, §4, §1

A further data set is described as follows: in vitro. As to conditions: human, plasma.

The structures appear in SMILES notation. pEC50: −log10 of the molar value. Like-named read-outs stand apart in the source and are kept apart here.

For `CC[C@@]1(O)C(=O)OCc2c1cc1n(c2=O)Cc2c-1nc1cc(F)c(C)c3c1c2[C@@H](NC(=O)CO)CC3` [Dxd, reference compound], the “% of test compound in whole blood (initial 1 uM as 100%)” value in data set [1] (mouse blood, 0 hr) was determined as 100.0%; in data set [1] (mouse blood, 0.25 hr), 95.9%; in data set [1] (mouse blood, 0.5 hr) it was 103.6%; in data set [1] (mouse blood, 1 hr) it was 111.9%; in data set [1] (mouse blood, 2 hr), 97.6%; in data set [1] (mouse blood, 4 hr), 94.8%. The “% of test compound in whole blood (initial 1 uM as 100%)” value in data set [1] (mouse blood, 8 hr) came out at 94.2%; in data set [1] (mouse blood, 24 hr), 94.2%. In addition, the “Mouse blood stability % Remaining at 24 h” value in data set [1] (mouse blood) amounted to 94.8%. In addition, the half-life at 1 μM in data set [1] (mouse, blood, read-out: Mouse blood stability T1/2 (converted)) was 62.6 h. Moreover, the IC50 in the data set with JIMT-1 (Homo sapiens, JIMT-1, read-out: JIMT-1 IC50 (nM)) came to 4.41 nM; in the data set with NCI-H1975 cells (Homo sapiens, NCI-H1975, 144 h, read-out: H1975 IC50 (nM)) it was 3.45 nM; in the data set on Calu-3 (Homo sapiens, Calu-3, 144 h, read-out: Calu-3 IC50 (nM)), 1.3 nM; in the data set on SK-BR-3 cells (Homo sapiens, SK-BR-3, 144 h, read-out: SKBR3 IC50 (nM)) it was 1.02 nM; with NCI-N87 cells it was 2.59 nM. The “JIMT-1 % Kill” value with JIMT-1 (JIMT-1 cells) is recorded as 94.5%. In the data set with NCI-H1975 cells (NCI-H1975 target negative cells, 6 days), the “H1975 % Kill” value is recorded as 99.3%. Further, in the data set on Calu-3 (Calu-3 target positive cells, 6 days), the “Calu-3 % Kill” value is 94.9%. Besides, the EC50 with SK-BR-3 cells (Homo sapiens, SK-BR-3, read-out: SKBR3 EC50 (nM)) stood at 1.63 nM. Further, the “SKBR3 % Kill” value in the data set on SK-BR-3 cells (SKBR3 target positive cells, 6 days) amounted to 97.0%.
As for `CC[C@@]1(O)C(=O)OCc2c1cc1n(c2=O)Cc2c-1nc1cc(F)c(C)c3c1c2[C@@H](NC(=O)COCNC(=O)[C@@H](N)CCCCN)CC3` [P5, (2S)-2,6-diamino-N-[({[(10S,23S)-10-ethyl-18-fluoro-10-hydroxy-19-methyl-5,9-dioxo-8-oxa-4,15-diazahexacyclo[14.7.1.0^2,14.0^4,13.0^6,11.0^20,24]tetracosa-1,6(11),12,14,16,18,20(24)-heptaen-23-yl]carbamoyl}methoxy)methyl]hexanamide], the “Human plasma stability % Remaining at 24 h” value came to 69.7%. In the data set “in vitro”, this compound gave a half-life of 49.4 h. Further, in data set [1] (mouse, blood), the half-life at 1 μM was 0.4 h. Besides, in data set [1] (mouse, blood, 1 μM), the “Mouse blood stability % Remaining at 24 h” value was 1.3%. Moreover, the pEC50 in the data set with SK-BR-3 cells (Homo sapiens) is 8.35.
The corresponding values for `CC[C@@]1(O)C(=O)OCc2c1cc1n(c2=O)Cc2c-1nc1cc(F)c(C)c3c1c2[C@@H](NC(=O)COCNC(=O)[C@@H](N)CCCCN=[N+]=[N-])CC3` [P6, (2S)-2-amino-6-azido-N-[({[(10S,23S)-10-ethyl-18-fluoro-10-hydroxy-19-methyl-5,9-dioxo-8-oxa-4,15-diazahexacyclo[14.7.1.0^2,14.0^4,13.0^6,11.0^20,24]tetracosa-1,6(11),12,14,16,18,20(24)-heptaen-23-yl]carbamoyl}methoxy)methyl]hexanamide] are 59.0%, 28.2 h, 0.2 h, 3.3% and 8.69.
The matching figures for `CC[C@@]1(O)C(=O)OCc2c1cc1n(c2=O)Cc2c-1nc1cc(F)c(C)c3c1c2[C@@H](NC(=O)COCNC(=O)CNC(=O)CN)CC3` [P8, 2-amino-N-({[({[(10S,23S)-10-ethyl-18-fluoro-10-hydroxy-19-methyl-5,9-dioxo-8-oxa-4,15-diazahexacyclo[14.7.1.0^2,14.0^4,13.0^6,11.0^20,24]tetracosa-1,6(11),12,14,16,18,20(24)-heptaen-23-yl]carbamoyl}methoxy)methyl]carbamoyl}methyl)acetamide]: 86.0%, 144 h, 2.9 h, 46.9% and 7.51.
In the case of `CC[C@@]1(O)C(=O)OCc2c1cc1n(c2=O)Cc2c-1nc1cc(F)c(C)c3c1c2[C@@H](NC(=O)COCN(C)C(=O)CN)CC3` [P9, 2-amino-N-[({[(10S,23S)-10-ethyl-18-fluoro-10-hydroxy-19-methyl-5,9-dioxo-8-oxa-4,15-diazahexacyclo[14.7.1.0^2,14.0^4,13.0^6,11.0^20,24]tetracosa-1,6(11),12,14,16,18,20(24)-heptaen-23-yl]carbamoyl}methoxy)methyl]-N-methylacetamide], the pEC50 in the data set with SK-BR-3 cells (Homo sapiens) was 7.16.
As to `CC[C@@]1(O)C(=O)OCc2c1cc1n(c2=O)Cc2c-1nc1cc(F)c(C)c3c1c2[C@@H](NC(=O)COCNC(=O)C(C)(C)N)CC3` [P11, 2-amino-N-[({[(10S,23S)-10-ethyl-18-fluoro-10-hydroxy-19-methyl-5,9-dioxo-8-oxa-4,15-diazahexacyclo[14.7.1.0^2,14.0^4,13.0^6,11.0^20,24]tetracosa-1,6(11),12,14,16,18,20(24)-heptaen-23-yl]carbamoyl}methoxy)methyl]-2-methylpropanamide], in the data set with SK-BR-3 cells (Homo sapiens), the pEC50 is 7.56.
For `CC[C@@]1(O)C(=O)OCc2c1cc1n(c2=O)Cc2c-1nc1cc(F)c(C)c3c1c2[C@@H](NC(=O)COCNC(=O)[C@H](N)Cc1ccccc1)CC3` [P12, (2R)-2-amino-N-[({[(10S,23S)-10-ethyl-18-fluoro-10-hydroxy-19-methyl-5,9-dioxo-8-oxa-4,15-diazahexacyclo[14.7.1.0^2,14.0^4,13.0^6,11.0^20,24]tetracosa-1,6(11),12,14,16,18,20(24)-heptaen-23-yl]carbamoyl}methoxy)methyl]-3-phenylpropanamide], the negative logarithm of the EC50 (pEC50) in the data set with SK-BR-3 cells (Homo sapiens) was 7.81.
